Measured values: patent US11603515B2, “Cell culture substrate, cancer cell aggregate and method for manufacturing same using said substrate, and drug screening method using said cancer cell aggregate” (NATIONAL UNIVERSITY CORPORATION HOKKAIDO UNIVERSITY, priority 2017, dated 2023)

System: microtumor consisting of PCI-55 cells
Assay: Evaluation of anticancer agent using microtumors (morphological change and molecular expression)
Assay type: cell-based, human
Method: A total of six types of cell culture substrates with Roughness (+) or Roughness (−) of 30, 95, or 300 μm in spot diameter were used to culture human pancreatic ductal adenocarcinoma cell line PCI-55. Immediately before culturing the cells, each of the cell culture substrates was immersed in distilled water for about 30 minutes to detach the polyparaxylene layer. Then, the cell culture substrate was washed using water, sterilized with 70% ethanol, and air dried. The cell culture substrate was then fixed to the inner bottom of a culture dish (Asnol petri dish, AS ONE) with 40 mm in diameter and 13.5 mm in depth via Vaseline. After adding DMEM and washing the cell culture substrate for three times, 3×10^6 of PCI-55 cells suspended in 3 mL of DMEM were seeded on each cell culture substrate, and cultured at 37 degrees Celsius overnight to for 48 hours.
Morphological change in microtumors was observed, by adding nocodazole known as an anticancer agent with microtubule polymerization inhibitory activity to a culture medium of the microtumor consisting of PCI-55 cells formed on the cell culture substrate 1 in Example 2 so that the final concentration becomes 1 μM.

[1] = nocodazole 1 μM, 24 hours after treatment, fluorescence images (FIG. 49)

## COC(=O)Nc1nc2ccc(C(=O)c3cccs3)cc2[nH]1 [nocodazole]
[1]
  Cell-in-cell structure of the microtumor: destructed
  Membranous expression of α-tubulin in the microtumor: disappeared
  Release of cells from the inner microtumor: a number of viable cells were scattered so as to overflow from the inner microtumor
Nocodazole final concentration 1 μM, PCI-55 microtumor on cell culture substrate 1, time-lapse DIC (FIG. 48)
  Adhesion of microtumor to the spot on the cell culture substrate / morphology: prevented from adhering to the spot on the cell culture substrate, and formed spheroidal morphology
Nocodazole treatment, Annexin V and EthD time-lapse images (FIG. 50)
  Accumulation of Annexin V on the surface of microtumor (dead cell phenotype): reduced the accumulation of Annexin V on the surface of microtumor
